The values that follow come from article PMC11239005, “Preclinical studies of RA475, a guanidine-substituted spirocyclic candidate RPN13/ADRM1 inhibitor for treatment of ovarian cancer” (PLOS ONE, 2024).

Like-named read-outs stand apart in the source and are kept apart here.

What all share (format): cell-based
In one assay the test system is CT26. Description: MTT cytotoxicity assay, CT26. Conditions: Mus musculus, CT26, 72 h. As for the experimental part:
(§1) All cell lines were obtained from the American Type Culture Collection (ATCC) and cultured in the specified medium supplemented with 10% fetal bovine serum, 100 IU/mL penicillin, and 100 μg/mL streptomycin at 37°C in a humidified 5% CO2/95% air incubator. Synthesis of new compounds is described in S1 File, and >95% purity of RA475, Up284 and its analogs were confirmed by NMR and MS. To assess drug cytotoxicity, cells were seeded at 2,500 cells/well (10,000 cells/well for MM lines) in 100 μL medium in 96-well plate as triplicates and after 24 h treated with compounds for a further 72 h. To assess cytotoxicity, the cells were incubated for 2 h at 37°C according to the manufacturer’s protocol with the Thiazolyl Blue Tetrazolium Bromide (20 μL/well of 5 mg/mL stock solution in water) (Sigma, M5655) and A570 measured using a Benchmark Plus microplate spectrophotometer (BIO-RAD). IC50 was estimated using Graphpad Prism 7 software.

The subject of the next assay is DLD1. As to the kind of experiment: MTT cytotoxicity assay, DLD1. Conditions: Homo sapiens, DLD-1, DLD1, 72 h. As for the experimental part: as §1
The test system of the next assay is Mouse keratinocytes. Description: MTT cytotoxicity assay, mouse keratinocytes. To be noted: Keratinocyte, Mouse keratinocytes (normal cells), 72 h. As for the experimental part: as §1
Assay [1] has as its system high molecular weight polyubiquitinated proteins in SKOV3 cells. Description: Anti-ubiquitin immunoblot, SKOV3. To be noted: Up284 and RA475 0.5 and 1 μM, RA190 1 μM. The source says:
Cell lysate prepared in MPER (Pierce) from each sample was normalized by total protein concentration using the bicinchoninic acid assay and bovine serum albumin standards. Normalized samples were subjected to SDS-PAGE, transferred to PVDF membranes and analyzed by Western blot using antibodies specific to ubiquitin (P4D1, sc-8017, Santa Cruz), PARP (#9542, […]), actin (#66009, Protein Tech Group), Tubulin(#66031, Protein Tech Group), ADRM1/RPN13 (D9Z1U, #12019, Cell Signaling), USP14 (Cell Signal, # 8159), Annexin V (#559763, BD Pharmingen), and for secondary antibodies we utilized either horseradish peroxidase (HRP)-linked anti-mouse IgG or anti-rabbit IgG (GE Healthcare UK Ltd), HRP-linked streptavidin (N100, Thermo Fisher) at the recommended dilution (1:5000).
Accumulation of high molecular weight polyubiquitinated proteins (polyUb) is a classical phenomenon of proteasome function inhibition due to the stabilization of its substrate.
Fig 3 Impact of RA475 on proteasome function. […] Actin was used as loading control. […] C) 4T1 and HCC1806 cells stably expressing 4UbFL were treated with compounds at indicated doses for 4 h and imaged by IVIS200 after the addition of luciferin substrate (50 μL, 7mg/mL in PBS). […] After a 4 h incubation, the cells were lysed and the luciferase activity in each cell lysate was determined with a luciferase assay kit (Promega) according to the manufacturer’s instructions. Bioluminescence was measured by using a luminometer (Glomax Multidetection system, Promega) E) A patch was shaved of hair on one leg of CD-1 mice, and 10 μg 4UbFL plasmid in 20 μL of PBS was injected into the quadriceps femoralis muscle followed immediately by injection of the 2 Needle Array to 5 mm depth encompassing the injection site and square wave electroporation (ElectroSquarePorator 833, BTX-2 Needle array 5mm gap, Harvard apparatus) delivered as eight pulses at 106V for 20 ms with 200 ms intervals. […] Equally sized areas were analyzed using Living Image 2.20 software. […]

Another assay has as its system MC38. As to the kind of experiment: MTT cytotoxicity assay, MC38. Conditions: Mus musculus, MC-38, MC38, 72 h. As for the experimental part:
as §1

The next assay concerns HCC1395. As to the kind of experiment: MTT cytotoxicity assay, HCC1395. To be noted: Homo sapiens, HCC1395, 72 h. As for the experimental part:
as §1

The subject of another assay is ID8VegF. Description: MTT cytotoxicity assay, ID8VegF. Conditions: 72 h. As for the experimental part: as §1
In assay [2] the test system is cancer lines in S1B Table. Description: MTT cytotoxicity, summary over cell line panel. Conditions: for IC50: 72 h, read-out: mean IC50 across all cancer lines in S1B Table. As for the experimental part: as §1
Modifications of Up284 were sought to improve its drug-like properties without significant compromise of its activity in vivo, and several new compounds were synthesized (S1 File). Based on our prior studies of its pharmacophore, the central ring nitrogen was the most logical for addition of charged moieties, including RA475 and RA484. We also examined a change to either 3,4 spiro rings (RA477, RA479), or addition of 3-Fluoro substitutions (RA482) (S1 File). Our focus is developing iRPN13 to treat ovarian cancer resistant to standard of care drug regimens.
We elected to focus on RA475 and expanded the analysis in a larger panel of cell lines including those from common cancer types and normal tissues. […] This panel included another pair of cell lines isolated from another ovarian cancer patient with drug-resistant disease (PEO4) and pre-treatment (PEO1), and both were similarly sensitive to RA475.

A further assay deals with BT549. Description: MTT cytotoxicity assay, BT549. To be noted: Homo sapiens, BT-549, BT549, 72 h. As for the experimental part:
as §1

Take `Cl.Cl.N#Cc1ccc(/C=C2/C(=O)/C(=C/c3ccc(C#N)cc3)C23CCN(C(=N)N)CC3)cc1` [RA475, 1,3-bis((E)-4-cyanobenzylidene)-2-oxo-7-azaspiro[3.5]nonane-7-carboximidamide dihydrochloride]: the IC50 is 630 nM with CT26; 495 nM with DLD1; above 2500 nM in the assay with Mouse keratinocytes; 446 nM with MC38; 464 nM in the assay with HCC1395; 1820 nM in the assay on ID8VegF. Also, the values for the IC50 (in [2]; in the assay with BT549) were 420 nM and 229 nM, respectively. Besides, in [1], the “accumulation of high molecular weight polyubiquitinated proteins” value was “robust accumulation of polyUb in dose dependent manner”. The “fold less potent than Up284” value in [2] (overall, cell line panel) was “approximately 3 fold”.

On to `N#Cc1ccc(/C=C2/C(=O)/C(=C/c3ccc(C#N)cc3)C23CCNCC3)cc1` [Up284, reference compound], for which the IC50 in the assay on CT26 was 50 nM; with DLD1, 110 nM; with Mouse keratinocytes it was above 2500 nM; with MC38, 60 nM; with HCC1395 (MTT, read-out: IC50), 120 nM; with ID8VegF it was 200 nM. Besides, the values for the IC50 (in assay [2]; in the assay with BT549) were 120 nM and 70 nM, respectively. For the same molecule, the “accumulation of high molecular weight polyubiquitinated proteins” value in [1] was “robust accumulation of polyUb”.
